From US12613246B2, “Fluorescent probe and protein labeling method” (SHANGHAI GLORY CAPITAL MANAGEMENT LTD., priority 2018, dated 2026)

Columns and labels:
[1] = Fluorescence emission spectra of probes in glycerol and methanol (viscosity response); format: physicochemical; conditions: maximum excitation wavelength of each probe; for Fluorescence ratio in glycerol methanol: 1×10^−5 M; for Emission wavelength: medium not given
Source text: Respectively dissolve Probe 1-32 and Reference Probes BG-CCVJ and BG-Gly-CCVJ in dimethyl sulfoxide so as to prepare a mother liquid with a concentration of 1×10^−2M; add the mother liquid to glycerol and methanol respectively and mix them well to prepare a solution with a concentration of 1×10^−5 M. Based on different probes, the fluorescence emission spectrum of each probe are detected under the same conditions with maximum excitation wavelength of each probe.
The probes are sensitive to the change of viscosity and have viscosity response.

[2] = Fluorescence of free probe before reaction with the protein tag; format: physicochemical
Procedure: (§1) Mix the probe with corresponding protein tag to obtain the mixed sample, wherein the final concentration of probe in the mixed sample is 5 μM, and the final concentration of protein tags is 10 μM; hatch the mixed sample at 37° C. for 1 h, and detect its fluorescence intensity change by using the fluorescence spectrophotometer.
(§2) According to the free probe quantum yield shown in Table 1, the fluorescence of the probes of and reference probes are extremely low before the reaction with the protein tag, and is close to the background fluorescence level of PBS buffer solution. […] However, according to the quantum yield of the binding protein tag, the fluorescence signal enhancement can be detected in the corresponding excitation emission channel after the probe reacts with the protein tag with hundreds to one thousand fold fluorescence activation times and very high brightness; the reference probes also can activate fluorescence, but the fluorescence quantum yield and brightness after activation are quite low.

SNAP protein tag [3] = test: Fluorescence activation after mixing probe with corresponding protein tag (SNAP); format: biochemical; conditions: probe 5 μM, protein tag 10 μM, 37° C., 1 h
Procedure: as §1, §2

Hela cells [4] = test: Labeling of Hela cells expressing protein tags versus Hela-WT cells, confocal microscopy; format: cell-based; conditions: probe 5 μM, 37° C., 2 h
Procedure: Take Hela cells as an example to detect the labeling effect of the compounds in mammalian cells. Hela cells and Hela-WT cells (Hela primitive cells without expressing protein tags), which can express protein tags stably, are planted in a glass bottom 96-well plate of 14 mm for 10 h. Add Probe 16, Probe 17 and Probe 18 into a culture medium respectively and dilute them to 5 μM. Hatch the cells in a carbon dioxide incubator at 37° C. for 2 h. Detect the fluorescence changes of labeled cells by using Leica TPS-8 confocal microscopy.

Hela cells [5] = test: Labeling of protein tags located in different organelles of Hela cells without washing; format: cell-based; conditions: probe 0.2 μM, 2 h
Procedure: Plant Hela cells (5000 cells/well) in a glass bottom plate of 96-well for 14 h, and then use Lipo2000 kit to transfect protein tags to locate plasmids in different organelles. After 24 h of transfection, remove the original culture medium, wash the culture medium twice with phenol free red DMEM culture medium, and hatch the cells with phenol free red medium containing probe (0.2 μM) for 2 h, and detect the effect of cell labeling by using Leica TCS-8 confocal microscopy imaging.

Hela cells [6] = test: Two-colour orthogonal labeling of CLIP-histone and mito-SNAP in the same Hela cell; format: cell-based; conditions: Probe 16 and Probe 9, 0.2 μM, 2 h, without washing
Procedure: Plant Hela cells (5000 cells/well) in a glass bottom plate of 96-well for 14 h; transfect pcdna3.1-CLIP-histone (CLIP protein labeled chromosome localization plasmid) and pcdna3.1-mito-SNAP (SNAP protein labeled […] localization plasmid) by using Lipo2000 kit (0.1 μg/well). After 24 h of transfection, remove the original culture medium, and wash the culture medium twice with phenol free red DMEM culture medium, and hatch the cells respectively with phenol free red medium containing Probe 16 and Probe 9 (0.2 μM) for 2 h, and detect the effect of cell labeling by using Leica TCS-8 confocal microscopy imaging.

SNAP protein tag [7] = test: Labeling of SNAP protein tag expressed in the liver of living mice; format: in vivo; conditions: 0.4 μM in 200 μL PBS intravenously, 6 h
Procedure: Firstly, introduce the plasmid pcdna3.1-SNAP (sample group) with SNAP protein expressing and the contrastive plasmid pcdna3.1-CAT (contrastive group) without SNAP protein expressing into mice. In this method, the plasmid is dissolved in a large volume of solution and rapidly injected into mice intravenously. The plasmid is absorbed by mouse liver, and then express the target protein. After 24 h of plasmid injection, inject the Probe 16 (0.4 μM) dissolved in 200 μL of PBS into mice intravenously to label SNAP protein tag. After 6 h, dissect the mice, and detect liver fluorescence differences by using Kodak multispectral vivo imaging system.

SNAP-IAA17-H2B = test: Probe fluorescence during IAA-induced protein degradation (AID system) in Hela cells; format: cell-based; conditions: probe 1 μM; 140 min after IAA added
Procedure: In order to verify that the fluorescence activation of the probe is related to the existence of protein, SNAP protein of mammalian cells is taken as an example, and AID degradation system is an example of detecting the fluorescence changes of probes combined with SNAP after protein degradation in Hela cells. Firstly, plant Hela cells (20000/cm^2) in a glass bottom cell culture medium of 20 mm for 14 h, and then transect the plasmids pcdna3.1-TIR1 and pcdna3.1-SNAP-IAA17-H2B by means of Lipofectmain2000 transfection reagent (Invertogen Co.). After the cells are transfected for 24 h, replace the cells labeled by the original cell culture medium with phenol red DMEM culture medium containing Probe 16 (1 μM), and hatch the cee sample in a carbon dioxide incubator at 37° C. for 1 h. After labeling, detect the fluorescence signal of the labeled cells by using Leica SP8 laser confocal microscopy imaging, and add indoleacetic acid (IAA) to induce the protein degradation of SNAP-IAA17-H2B, and detect the changes of cell fluorescence during protein degradation.

CLIP protein tag = test: Fluorescence activation after mixing probe with corresponding protein tag (CLIP); format: biochemical; conditions: probe 5 μM, protein tag 10 μM, 37° C., 1 h
Procedure: as §1, §2

| SMILES | Fluorescence ratio in glycerol methanol [1] | Emission wavelength [1] [nm] | Quantum yield of free probe [2] | Fluorescence activation multiple (SNAP protein tag [3]) | Quantum yield of binding protein tags (SNAP protein tag [3]) | Fluorescence signal in Hela-WT cells (without protein tags) (Hela cells [4]) | Increase of fluorescence signal in cells expressing protein tags (Hela cells [4]) [times] | Display of subcellular organelle structures (Hela cells [5]) | Display of mitochondria and chromosomes in the same cell (Hela cells [6]) | Liver fluorescence intensity of pcdna3.1-SNAP mice relative to the contrastive group (SNAP protein tag [7]) | Liver fluorescence of mice injected with contrastive plasmid pcdna3.1-CAT (SNAP protein tag [7]) | Fluorescence signal of SNAP-IAA17-H2B protein after IAA addition (SNAP-IAA17-H2B) | Fluorescence activation multiple (CLIP protein tag) | Quantum yield of binding protein tags (CLIP protein tag) |
| --- | --- | --- | --- | --- | --- | --- | --- | --- | --- | --- | --- | --- | --- | --- |
| CN(CCOC(=O)NCc1ccc(COc2nc(N)nc3[nH]cnc23)cc1)c1ccc2c(c1)C(C)(C)c1cc(/C=C(\C#N)C(=O)OC(C)(C)C)sc1-2 [Probe 16] | 1421 | 645 | <0.001 | 842 | 0.71 | no corresponding fluorescence signal is detected | ~700 | can clearly display a variety of subcellular organelle structures without washing | clearly and simultaneously display the structure of mitochondria and chromosomes without washing | more than 20 fold | very low | almost negligible |  |  |
| CN(CCOC(=O)NCc1ccc(COc2nc(N)nc3[nH]cnc23)cc1)c1ccc2c(c1)C(C)(C)c1cc(/C=C(\C#N)c3nc4ccccc4s3)sc1-2 [Probe 18] | 1123 | 675 | <0.001 | 890 | 0.48 | no corresponding fluorescence signal is detected | ~700 | can clearly display a variety of subcellular organelle structures without washing |  |  |  |  |  |  |
| CN(CCOC(=O)NCc1ccc(COc2nccc(N)n2)cc1)c1ccc2c(c1)C(C)(C)c1cc(/C=C(\C#N)C(=O)OC(C)(C)C)sc1-2 [Probe 24] | 1125 | 645 | <0.001 |  |  |  |  |  |  |  |  |  | 535 | 0.55 |
| CN(CCOC(=O)NCc1ccc(COc2nccc(N)n2)cc1)c1ccc2c(c1)C(C)(C)c1cc(/C=C(\C#N)c3nc4ccccc4o3)sc1-2 [Probe 25] | 782 | 670 | <0.001 |  |  |  |  |  |  |  |  |  | 421 | 0.41 |
| CN(CCOC(=O)NCc1ccc(COc2nccc(N)n2)cc1)c1ccc2c(c1)C(C)(C)c1cc(/C=C(\C#N)c3nc4ccccc4s3)sc1-2 [Probe 26] | 522 | 675 | <0.001 |  |  |  |  |  |  |  |  |  | 478 | 0.46 |
| CN(CCOC(=O)NCc1ccc(COc2nccc(N)n2)cc1)c1ccc2c(c1)C(C)(C)c1cc(/C=C(\C#N)C(=O)OC(C)(C)C)oc1-2 [Probe 29] | 1024 | 652 | <0.001 |  |  |  |  |  |  |  |  |  | 933 | 0.57 |
